Source: US8680290B2, “Isoxazoline derivatives and their use as herbicides” (Syngenta Limited, priority 2004, dated 2014)

Experiments:
[1] = system: Monocotyledonous and dicotyledonous test plants; assay: Example B1 herbicidal action, application pre-emergence (Table B1b); assay type: in vivo; conditions: 250 g/ha, evaluated after 4 weeks
In short: (§1)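 Compounds sprayed as aqueous solution from acetone/Emulsogen EL/NMP/dipropylene glycol monomethyl ether/X-77 formulation onto soil right after sowing (pre-emergence) or onto 8–9-day plants (post-emergence); greenhouse-grown. Damage scored 0 (none) to 10 (total) after 4 weeks pre- or 3 weeks post-emergence.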

[2] = system: Monocotyledonous and dicotyledonous test plants; assay: Example B1 herbicidal action, application post-emergence (Table B1a); assay type: in vivo; conditions: 250 g/ha, evaluated after 3 weeks, scale 0-10
In short: as §1

[3] = system: Monocotyledonous and dicotyledonous test plants; assay: Example B2 herbicidal action, application pre-emergence, 96-cell seed trays (Table B2b); assay type: in vivo; conditions: 1000 g/ha
Protocol: Monocotyledonous and dicotyledonous test plants were sown in sterilised standard soil in seed trays each having 96 cells. After one day (pre-emergence) or after 8 to 9 days cultivation (post-emergence) under controlled conditions in a climatic chamber (cultivation at 17/23° C.; 13 hours light; 50-60% humidity; after application at 19/24° C.), the plants were treated with an aqueous spray solution of 1000 mg/l of the active ingredient used (rate of application: […]; incl. 10% DMSO as solvent). The plants were grown on in the climatic chamber until the test was evaluated (10 total damage to plant, 0=no damage to plant) after 9 or 13 days.

Structure (SMILES) | herbicidal action (damage rating 0-10), Amaranthus [1] | herbicidal action (damage rating 0-10), Digitaria [1] | herbicidal action (damage rating 0-10), Panicum [1] | herbicidal action (damage rating 0-10), Setaria [1] | herbicidal action (damage rating 0-10), Sida [1] | herbicidal action (damage rating 0-10), Agrostis [3] | herbicidal action (damage rating 0-10), Digitaria [3] | herbicidal action (damage rating 0-10), Poa [3] | herbicidal action (damage rating 0-10), Setaria [3] | melting point | other results
CC1(C)CC([S+]([O-])C(Cl)c2c(F)cccc2F)=NO1 (mixture of isomers) [1.24] | 8 | 8 | 10 | 7 | 4 | 10 | 10 | 10 | 9 | – | herbicidal damage rating, Digitaria [2]: 6; herbicidal damage rating, Panicum [2]: 6; herbicidal damage rating, Setaria [2]: 6
CC1(C)CC(S(=O)(=O)C(F)(F)c2c(F)cccc2F)=NO1 [1.20] | 10 | 10 | 10 | 10 | 9 | 10 | 10 | 10 | 10 | – | herbicidal damage rating, Abutilon [2]: 7; herbicidal damage rating, Amaranthus [2]: 3; herbicidal damage rating, Digitaria [2]: 6; herbicidal damage rating, Panicum [2]: 0; herbicidal damage rating, Setaria [2]: 6; herbicidal damage rating, Sida [2]: 5
CC1(C)CC(S(=O)(=O)C(c2c(F)cccc2F)S(=O)(=O)Cc2ccccc2)=NO1 (stereo not shown) [1.39] | 3 | 7 | 7 | 3 | 0 | 10 | 5 | 10 | 3 | – | –
CC1(C)CC(S(=O)(=O)C2(c3c(F)cccc3F)CC2)=NO1 [Compound No. 1.01, 3-[1-(2,6-difluoro-phenyl)-cyclopropanesulfonyl]-5,5-dimethyl-4,5-dihydroisoxazole] | 2 | 7 | 8 | 8 | 0 | 10 | 9 | 10 | 9 | – | –
C#CCC(c1c(F)cccc1F)S(=O)(=O)C1=NOC(C)(C)C1 (stereo not shown) [Compound No. 1.02] | – | – | 6 | 3 | 0 | 8 | 9 | 5 | 9 | – | herbicidal damage rating, Abutilon [2]: 0; herbicidal damage rating, Amaranthus [2]: 9; herbicidal damage rating, Digitaria [2]: 6; herbicidal damage rating, Panicum [2]: 10; herbicidal damage rating, Setaria [2]: 7; herbicidal damage rating, Sida [2]: 5
CC1(C)CC(S(=O)(=O)C(Cc2ccc(F)cc2)c2c(F)cccc2F)=NO1 (stereo not shown) [Compound No. 1.05, 3-[1-(2,6-difluoro-phenyl)-2-(4-fluoro-phenyl)-ethanesulfonyl]-5,5-dimethyl-4,5-dihydroisoxazole] | – | – | – | – | – | – | – | – | – | 95 °C | –
COC(=O)C(Cl)(c1c(F)cccc1F)S(=O)(=O)C1=NOC(C)(C)C1 (stereo not shown) [Compound No. 1.14, chloro-(2,6-difluorophenyl)-(5,5-dimethyl-4,5-dihydroisoxazole-3-sulfonyl)-acetic acid methyl ester] | 8 | 9 | 9 | 9 | 6 | 10 | 9 | 10 | 10 | – | herbicidal damage rating, Abutilon [2]: 4; herbicidal damage rating, Digitaria [2]: 3; herbicidal damage rating, Panicum [2]: 0; herbicidal damage rating, Setaria [2]: 3; herbicidal damage rating, Sida [2]: 3
CC1(C)CC(S(=O)(=O)C(Cl)(CC=C(F)F)c2c(F)cccc2F)=NO1 (stereo not shown) [Compound No. 1.17, 3-[1-chloro-1-(2,6-difluoro-phenyl)-4,4-difluoro-but-3-ene-1-sulfonyl]-5,5-dimethyl-4,5-dihydroisoxazole] | – | – | – | – | – | – | – | – | – | 113 °C | –
CC1(C)CC(S(=O)(=O)C(C(=O)NC2CC2)c2c(F)cccc2F)=NO1 (stereo not shown) [Compound No. 1.35, N-cyclopropyl-2-(2,6-difluoro-phenyl)-2-(5,5-dimethyl-4,5-dihydroisoxazole-3-sulfonyl)-acetamide] | – | – | – | – | – | – | – | – | – | 150 °C | –
C=CC1CC1(c1c(F)cccc1F)S(=O)(=O)C1=NOC(C)(C)C1 (stereo not shown) [Compound No. 1.46, 3-[1-(2,6-difluoro-phenyl)-2-vinylcylopropane-sulfonyl]-5,5-dimethyl-4,5-dihydroisoxazole] | 3 | 6 | 5 | 3 | 0 | – | – | – | – | 117 °C | –
COCC(c1c(F)cccc1F)S(=O)(=O)C1=NOC(C)(C)C1 (stereo not shown) [Compound No. 1.51, 3-[1-(2,6-difluoro-phenyl)-2-methoxy-ethanesulfonyl]-5,5-dimethyl-4,5-dihydroisoxazole] | 8 | 9 | 9 | 8 | 0 | – | – | – | – | 102 °C | –
CC1(C)CC(S(=O)(=O)C(C)(F)c2ccccc2)=NO1 (stereo not shown) [Compound No. 1.138, 3-(1-fluoro-1-phenyl-ethanesulfonyl)-5,5-dimethyl-4,5-dihydroisoxazole] | – | – | – | – | – | – | – | – | – | 91 to 93 °C | –
Cn1nc(C(F)(F)F)c(C(F)S(=O)(=O)C2=NOC(C)(C)C2)c1OC1COC1 (stereo not shown) [Compound No. 2.27, 3-{fluoro-[1-methyl-5-(oxetan-3-yloxy)-3-trifluoromethyl-1H-pyrazol-4-yl]-methanesulfonyl}-5,5-dimethyl-4,5-dihydroisoxazole] | – | – | – | – | – | – | – | – | – | 105 to 107 °C | –
Cc1noc(C2CC2)c1C(Cl)(Cl)S(=O)(=O)C1=NOC(C)(C)C1 [Compound No. 3.06, 5-cyclopropyl-4-[dichloro-(5,5-dimethyl-4,5-dihydroisoxazole-3-sulfonyl)methyl]-3-methyl-isoxazole] | – | – | – | – | – | – | – | – | – | 72 °C | –
Cc1onc(C2CC2)c1C(Cl)S(=O)(=O)C1=NOC(C)(C)C1 (stereo not shown) [Compound No. 3.07, 4-[chloro-(5,5-dimethyl-4,5-dihydroisoxazole-3-sulfonyl)methyl]-3-cyclopropyl-5-methyl-isoxazole] | 4 | 9 | – | 8 | 2 | – | – | – | – | 159 °C | –
Cn1cc(C(F)(F)F)c(C(F)S(=O)(=O)C2=NOC(C)(C)C2)n1 (stereo not shown) [Compound No. 4.04, 3-[fluoro-(1-methyl-4-trifluoromethyl-1H-pyrazol-3-yl)-methanesulfonyl]-5,5-dimethyl-4,5-dihydroisoxazole] | – | – | – | – | – | – | – | – | – | 117 to 118 °C | –
Cn1cc(C(F)(F)F)c(C(F)(F)S(=O)(=O)C2=NOC(C)(C)C2)n1 [Compound No. 4.05, 3-[difluoro-(1-methyl-4-trifluoromethyl-1H-pyrazol-3-yl)-methanesulfonyl]-5,5-dimethyl-4,5-dihydro-isoxazole] | – | – | – | – | – | – | – | – | – | 101 to 103 °C | –
COc1cc(C(Cl)(Cl)S(=O)(=O)C2=NOC(C)(C)C2)on1 [Compound No. 5.02, 5-[dichloro-(5,5-dimethyl-4,5-dihydroisoxazole-3-sulfonyl)-methyl]-3-methoxy-isoxazole] | – | – | – | – | – | – | – | – | – | 118 °C | –
COc1cc(C(F)S(=O)(=O)C2=NOC(C)(C)C2)on1 (stereo not shown) [Compound No. 5.03, 5-[(5,5-dimethyl-4,5-dihydroisoxazole-3-sulfonyl)-fluoromethyl]-3-methoxy-isoxazole] | 10 | – | – | 9 | 2 | – | – | – | – | 99 °C | –
Cc1c(Br)noc1C(F)(F)S(=O)(=O)C1=NOC(C)(C)C1 [Compound No. 5.06, 3-bromo-5-[(5,5-dimethyl-4,5-dihydroisoxazole-3-sulfonyl)-difluoro-methyl]-4-methyl-isoxazole] | – | – | – | – | – | – | – | – | – | 70 to 75 °C | –
